Numbers after ± are expanded uncertainties.
Assay: wn = mass fraction of the nth substance listed
Settings: 101 kPa, Liquid; for speed of sound: Single path-length method; for mass density: Vibrating tube method

CN1CCCC1=O [N-methylpyrrolidone] + CCCCn1cc[n+](C)c1.F[B-](F)(F)F
Settings	mass density [kg/m3]	speed of sound [m/s]	viscosity [mPa·s]
293.15 K, w2 = 0	1034.1 ± 0.2	1565.7 ± 0.9	1.786 ± 0.049
293.15 K, w2 = 0.0986	1052.7 ± 0.2	1579.2 ± 1	2.568 ± 0.068
293.15 K, w2 = 0.2498	1077.9 ± 0.3	1582 ± 1.1	3.938 ± 0.1
293.15 K, w2 = 0.4971	1119.5 ± 0.5	1585.5 ± 1.4	9.374 ± 0.23
293.15 K, w2 = 0.7413	1160.6 ± 0.8	1580.1 ± 1.8	27.49 ± 0.7
298.15 K, w2 = 0	1029.7 ± 0.2	1546.1 ± 0.9	1.693 ± 0.047
298.15 K, w2 = 0.0986	1048.4 ± 0.2	1560.5 ± 1	2.33 ± 0.062
298.15 K, w2 = 0.2498	1073.7 ± 0.3	1564.5 ± 1.1	3.528 ± 0.091
298.15 K, w2 = 0.4971	1115.5 ± 0.5	1570.1 ± 1.4	8.144 ± 0.2
298.15 K, w2 = 0.7413	1156.8 ± 0.8	1566.6 ± 1.8	22.73 ± 0.57
303.15 K, w2 = 0	1025.2 ± 0.2	1526.7 ± 0.9	1.564 ± 0.044
303.15 K, w2 = 0.0986	1044 ± 0.2	1541.8 ± 1	2.129 ± 0.058
303.15 K, w2 = 0.2498	1069.5 ± 0.3	1546.8 ± 1.1	3.18 ± 0.083
303.15 K, w2 = 0.4971	1111.5 ± 0.5	1554.5 ± 1.4	7.116 ± 0.18
303.15 K, w2 = 0.7413	1153 ± 0.8	1552.8 ± 1.8	19.07 ± 0.48
308.15 K, w2 = 0	1020.8 ± 0.2	1507.5 ± 0.9	1.448 ± 0.042
308.15 K, w2 = 0.0986	1039.7 ± 0.2	1523.2 ± 1	1.953 ± 0.054
308.15 K, w2 = 0.2498	1065.4 ± 0.3	1529.4 ± 1.1	2.884 ± 0.076
308.15 K, w2 = 0.4971	1107.5 ± 0.5	1539 ± 1.4	6.257 ± 0.16
308.15 K, w2 = 0.7413	1149.2 ± 0.8	1539.2 ± 1.8	16.26 ± 0.41
313.15 K, w2 = 0	1016.3 ± 0.2	1488.3 ± 0.9	1.346 ± 0.039
313.15 K, w2 = 0.0986	1035.4 ± 0.2	1504.8 ± 1	1.798 ± 0.05
313.15 K, w2 = 0.2498	1061.2 ± 0.3	1512 ± 1.1	2.627 ± 0.07
313.15 K, w2 = 0.4971	1103.5 ± 0.5	1523.7 ± 1.4	5.544 ± 0.14
313.15 K, w2 = 0.7413	1145.4 ± 0.8	1525.6 ± 1.8	13.88 ± 0.35
318.15 K, w2 = 0	1011.9 ± 0.2	1469.2 ± 0.9	1.258 ± 0.037
318.15 K, w2 = 0.0986	1031 ± 0.2	1486.6 ± 1	1.662 ± 0.047
318.15 K, w2 = 0.2498	1057 ± 1	1494.8 ± 1.1	2.405 ± 0.065
318.15 K, w2 = 0.4971	1099.5 ± 0.5	1508.4 ± 1.4	4.948 ± 0.13
318.15 K, w2 = 0.7413	1141.7 ± 0.8	1512.2 ± 1.8	12.04 ± 0.3
323.15 K, w2 = 0	1007.4 ± 0.2	1450.4 ± 0.9	1.176 ± 0.035
323.15 K, w2 = 0.0986	1026.6 ± 0.2	1468.4 ± 1	1.542 ± 0.044
323.15 K, w2 = 0.2498	1052.8 ± 0.3	1478 ± 1.1	2.214 ± 0.06
323.15 K, w2 = 0.4971	1095.5 ± 0.5	1493.2 ± 1.4	4.444 ± 0.11
323.15 K, w2 = 0.7413	1137.9 ± 0.8	1498.9 ± 1.8	10.54 ± 0.27
328.15 K, w2 = 0	1002.9 ± 0.2	1431.4 ± 0.9	1.103 ± 0.033
328.15 K, w2 = 0.0986	1022.3 ± 0.2	1450.5 ± 1	1.435 ± 0.041
328.15 K, w2 = 0.2498	1048.6 ± 0.3	1461.1 ± 1.1	2.043 ± 0.056
328.15 K, w2 = 0.4971	1091.6 ± 0.4	1478.1 ± 1.4	4.015 ± 0.1
328.15 K, w2 = 0.7413	1134.2 ± 0.8	1485.6 ± 1.8	9.281 ± 0.24
333.15 K, w2 = 0	998.4 ± 0.2	1412.8 ± 0.9	1.037 ± 0.032
333.15 K, w2 = 0.0986	1018 ± 0.2	1432.6 ± 1	1.341 ± 0.039
333.15 K, w2 = 0.2498	1044.4 ± 0.3	1444.4 ± 1.1	1.892 ± 0.052
333.15 K, w2 = 0.4971	1087.6 ± 0.4	1463.2 ± 1.4	3.636 ± 0.095
333.15 K, w2 = 0.7413	1130.5 ± 0.7	1472.4 ± 1.8	8.224 ± 0.21
338.15 K, w2 = 0	993.9 ± 0.2	1394.4 ± 0.9	0.9769 ± 0.03
338.15 K, w2 = 0.0986	1013.6 ± 0.2	1414.6 ± 1	1.258 ± 0.037
338.15 K, w2 = 0.2498	1040.2 ± 0.3	1427.8 ± 1.1	1.76 ± 0.049
338.15 K, w2 = 0.4971	1083.6 ± 0.4	1448.1 ± 1.4	3.34 ± 0.088
338.15 K, w2 = 0.7413	1126.7 ± 0.7	1459.3 ± 1.8	7.318 ± 0.19
343.15 K, w2 = 0	989.4 ± 0.2	1376 ± 0.9	0.923 ± 0.029
343.15 K, w2 = 0.0986	1009.2 ± 0.2	1396.4 ± 1	1.182 ± 0.035
343.15 K, w2 = 0.2498	1036 ± 1	1411.3 ± 1.1	1.641 ± 0.046
343.15 K, w2 = 0.4971	1079.6 ± 0.4	1432.9 ± 1.4	3.064 ± 0.081
343.15 K, w2 = 0.7413	1123 ± 1	1445.8 ± 1.8	6.555 ± 0.17

— the NIST ThermoML archive (doi:10.1016/j.fluid.2018.08.017)
